pEC50: −log10 of the molar value.
Target: T1, hNPRA (Homo sapiens, UniProt P16066)
T1 construct: expressed in transfected cells
T1 sequence (P16066 33-1061): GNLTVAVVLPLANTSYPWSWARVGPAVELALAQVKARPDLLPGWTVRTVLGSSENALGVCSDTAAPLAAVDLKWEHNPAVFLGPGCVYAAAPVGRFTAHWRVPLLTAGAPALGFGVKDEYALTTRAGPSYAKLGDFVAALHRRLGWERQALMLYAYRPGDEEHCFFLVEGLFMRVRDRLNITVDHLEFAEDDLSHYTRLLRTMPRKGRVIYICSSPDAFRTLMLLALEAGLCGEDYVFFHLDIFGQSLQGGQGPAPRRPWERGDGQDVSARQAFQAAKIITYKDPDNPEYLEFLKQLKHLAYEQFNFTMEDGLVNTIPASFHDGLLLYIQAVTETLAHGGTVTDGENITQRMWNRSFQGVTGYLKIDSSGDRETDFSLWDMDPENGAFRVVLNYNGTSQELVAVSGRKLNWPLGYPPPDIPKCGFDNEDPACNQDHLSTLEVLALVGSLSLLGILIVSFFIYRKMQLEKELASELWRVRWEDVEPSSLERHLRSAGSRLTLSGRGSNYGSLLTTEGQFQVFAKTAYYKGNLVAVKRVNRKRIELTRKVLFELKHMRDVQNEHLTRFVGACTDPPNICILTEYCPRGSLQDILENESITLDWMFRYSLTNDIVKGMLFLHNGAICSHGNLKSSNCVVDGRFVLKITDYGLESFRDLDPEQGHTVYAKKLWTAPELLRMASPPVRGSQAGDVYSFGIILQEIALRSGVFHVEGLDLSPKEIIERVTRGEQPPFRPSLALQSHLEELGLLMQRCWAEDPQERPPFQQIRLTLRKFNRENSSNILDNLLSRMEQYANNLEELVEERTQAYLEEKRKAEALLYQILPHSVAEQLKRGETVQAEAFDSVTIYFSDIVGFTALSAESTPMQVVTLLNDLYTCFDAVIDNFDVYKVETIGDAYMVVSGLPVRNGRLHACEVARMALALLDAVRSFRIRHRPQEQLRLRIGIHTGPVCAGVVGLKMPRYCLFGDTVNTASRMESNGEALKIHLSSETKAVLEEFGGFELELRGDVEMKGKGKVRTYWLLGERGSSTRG
Assay: NPRA Functional Cell Assay (cGMP HTRF)
Format: cell-based
Conditions: Human NPRA HEK JumpIn stable cells; cGMP by HTRF after 1 hour at 37° C.; 10-point dose response
Text: Assay Buffer components HEPES and Opti-MEM® I Reduced-Serum with Glutamine (no phenol red) were from Gibco/Invitrogen (Thermo Fisher Scientific, Waltham, Mass. USA). 3-Isobutyl-1-methylxanthine (IBMX) and 4-(3-Butoxy-4-methoxybenzyl)imidazolidin-2-one (RO20) were obtained from Sigma-Aldrich (St. Louis, Mo., USA). DPBS (Dulbecco's phosphate-buffered saline) without Ca2+ and Mg2+ was purchased from GE Healthcare Bio-Sciences (Pittsburgh, Pa., USA). 384 well white Optiplates were from Perkin Elmer (Atlantic Highlands, N.J., USA). Human ANP (Atrial Natriuretic Peptide) (1-28) was purchased from Sigma-Aldrich (Catalog #A1663) and rat ANP (1-28) from Bachem (Torrance, Calif., USA) (Catalog #H2100). Human-BNP (Human-Brain Natriuretic Peptide) (1-32 AA) was purchased from American Peptide Company (Sunnyvale, Calif., USA) (product No. 14-1-90). cGMP kits were purchased from Cisbio. The assay ready frozen (ARF) Human/rat/dog NPRA HEK JumpIn Stable frozen cells (low passage number 5-11) were prepared in-house.
Test compounds were titrated in DMSO in a 10-point dose response in a separate step followed by a 100-fold dilution into the reaction. Positive response for each assay was determined using 10 nM rat-ANP peptide (rat cells) or 50 nM h-ANP peptide (human and dog cells).
Cells were thawed, washed with DPBS and resuspended in assay buffer (Opti-MEM+Glutamine, phenol red free media, 10 mM HEPES, 100 uM IBMX and 100 uM RO20) that was warmed to 37° C. Cells were then transferred to microplates via a Microplate Combi dispenser at a density of 1500, 400 and 1200 cells/well for human, rat and dog cells respectively, followed by acoustic transfer (Echo) of compound.
(§1) Compounds and cells were incubated at 37° C. with 5% CO2 for 1 hour, after which the cells were lysed and cGMP was captured using a CisBio cGMP HTRF assay kit. The TRF signal was measured with an Envision plate reader (emission set to 615 and 665 nm) after 1 hour incubation at ambient temperature. The TRF signal was converted to [cGMP] through the use of a cGMP calibration curve on each microplate. EC50's were generated from the resulting dose response curves by use of a 4 parameter logistic algorithm.
Assay Buffer components HEPES and Opti-MEM® I Reduced-Serum with Glutamine (no phenol red) were from Gibco/Invitrogen. 3-Isobutyl-1-methylxanthine (IBMX) and 4-(3-Butoxy-4-methoxybenzyl)imidazolidin-2-one (RO20) were obtained from Sigma. DPBS (Dulbecco's phosphate-buffered saline) without Ca2+ and Mg2+ was purchased from GE Healthcare Bio-Sciences (Pittsburgh, Pa., USA). 384 well white Optiplates were from Perkin Elmer (Atlantic Highlands, N.J., USA). Human ANP (1-28) was purchased from Sigma (A1663) and rat ANP (1-28) from Bachem (H2100). Human-BNP (1-32 AA) was purchased from American Peptide Company (Sunnyvale, Calif., USA) (product No. 14-1-90). cGMP kits were purchased from Cisbio (Bedford, Mass., USA). The assay ready frozen (ARF) Human/rat/dog NPRA HEK JumpIn Stable frozen cells (low passage number 5-11) were prepared in-house.
as §1, with “Envision®” for “Envision”, “(Perkin Elmer)(emission” for “(emission”
hNPRA EC50 (nM) are were determined for the compounds of Example 1 through 273 and are reported in the Experimental section of this application.

| SMILES | pEC50 |
| --- | --- |
| CC(C)[C@]1(F)CCc2nc3c(F)c(F)c(C(=O)N[C@H](CCN4CCC(O)CC4)c4ccc(N5CCOC5=O)cc4)cc3cc2C1 [Example 7, (7S)-3,4,7-trifluoro-N-{(1R)-3-(4-hydroxypiperidin-1-yl)-1-[4-(2-oxo-1,3-oxazolidin-3-yl)phenyl]propyl}-7-(1-methylethyl)-5,6,7,8-tetrahydroacridine-2-carboxamide] | 6.60 |
| CC(C)[C@]1(F)CCc2nc3c(F)cc(C(=O)N[C@H](CCN4CCC(C(F)(F)F)CC4)c4ccc(-c5ccnnc5)nc4)cc3cc2C1 (racemic) [Example 64, rac-(7S)-4,7-difluoro-7-isopropyl-N-[rac-(1R)-1-(6-pyridazin-4-yl-3-pyridyl)-3-[4-(trifluoromethyl)-1-piperidyllpropyl]-6,8-dihydro-5H-acridine-2-carboxamide] | 5.98 |
| CC(C)[C@]1(F)CCc2nc3c(F)cc(C(=O)N[C@H](CCN4CCC(O)(C(=O)O)CC4)c4ccc(-c5ccnnc5)nc4)cc3cc2C1 [Example 13, 1-[(3R)-3-({[(7S)-4,7-difluoro-7-(1-methylethyl)-5,6,7,8-tetrahydroacridin-2-yl]carbonyl}amino)-3-(6-pyridazin-4-ylpyridin-3-yl)propyl]-4-hydroxypiperidine-4-carboxylic acid] | 6.07 |
| CC(C)[C@]1(F)CCc2nc3c(F)cc(C(=O)N[C@H](CCN4CCC(O)(CO)CC4)c4ccc(-c5ccnnc5)nc4)cc3cc2C1 [Example 19, (7S)-4,7-difluoro-N-[(1R)-3-[4-hydroxy-4-(hydroxymethyl)piperidin-1-yl]-1-(6-pyridazin-4-ylpyridin-3-yl)propyl]-7-(1-methylethyl)-5,6,7,8-tetrahydroacridine-2-carboxamide] | 6.69 |
| CC(C)[C@]1(F)CCc2nc3c(F)cc(C(=O)N[C@H](CCN4CCC(O)CC4)c4ccc(-c5cn[nH]c5)nc4)cc3cc2C1 [Example 32, (S)-N-((R)-1-(6-(1H-pyrazol-4-yl)pyridin-3-yl)-3-(4-hydroxypiperidin-1-yl)propyl)-4,7-difluoro-7-isopropyl-5,6,7,8-tetrahydroacridine-2-carboxamide] | 6.66 |
| CC1([C@H]2CCc3nc4ccc(C(=O)N[C@H](CCN5CCC(O)CC5)c5ccc(N6CCOC6=O)cc5)cc4cc3C2)CC1 [Example 1, (S)-N-((R)-3-(4-hydroxypiperidin-1-yl)-1-(4-(2-oxooxazolidin-3-yl)phenyl)propyl)-7-(1-methylcyclopropyl)-5,6,7,8-tetrahydroacridine-2-carboxamide] | 6.15 |
| CN1CC(NC(=O)c2cccc([C@@H](CCN3CCC[C@H]3CO)NC(=O)c3ccc4nc5c(cc4c3)C[C@@H](C3(C)CC3)CC5)c2)C1 [Example 21, (S)-N-((R)-3-((S)-2-(hydroxymethyl)pyrrolidin-1-yl)-1-(3-((1-methylazetidin-3-yl)carbamoyl)phenyl)propyl)-7-(1-methylcyclopropyl)-5,6,7,8-tetrahydroacridine-2-carboxamide] | 6.80 |
| COC1CCN(CC[C@@H](NC(=O)c2cc(F)c3nc4c(cc3c2)C[C@](F)(C(C)C)CC4)c2ccc(-c3ccnnc3)nc2)CC1 [Example 18, (7S)-4,7-difluoro-N-[(1R)-3-(4-methoxypiperidin-1-yl)-1-(6-pyridazin-4-ylpyridin-3-yl)propyl]-7-(1-methylethyl)-5,6,7,8-tetrahydroacridine-2-carboxamide] | 6.83 |
| CC(C)[C@]1(F)CCc2nc3c(F)cc(C(=O)N[C@H](CCN4CCC5(CCO5)CC4)c4ccc(-c5ccnnc5)nc4)cc3cc2C1 (racemic) [Example 62, rac-(7S)-4,7-difluoro-7-isopropyl-N-[rac-(1R)-3-(1-oxa-7-azaspiro[3.5]nonan-7-yl)-1-(6-pyridazin-4-yl-3-pyridyl)propyl]-6,8-dihydro-5H-acridine-2-carboxamide] | 7.22 |
| CC1C(=O)NC(=O)N1c1ccc([C@@H](CCN2CCC(O)CC2)NC(=O)c2cc(F)c3nc4c(cc3c2)C[C@](F)(C(C)C)CC4)cn1 (stereo partly drawn) [Example 29, (7S)-4,7-difluoro-N-((1R)-3-(4-hydroxypiperidin-1-yl)-1-(6-(5-methyl-2,4-dioxoimidazolidin-1-yl)pyridin-3-yl)propyl)-7-isopropyl-5,6,7,8-tetrahydroacridine-2-carboxamide] | 6.56 |
| CC(C)[C@]1(F)CCc2nc3c(F)cc(C(=O)N[C@H](CCN4CCCCC4CO)c4ccc(-c5ccnnc5)nc4)cc3cc2C1 (mixture of isomers) [Example 58, rac-(7S)-4,7-difluoro-7-isopropyl-N-[rac-(1R)-3-[2-(hydroxymethyl)-1-piperidyl]-1-(6-pyridazin-4-yl-3-pyridyl)propyl]-6,8-dihydro-5H-acridine-2-carboxamide] | 7.10 |
| CC(C)[C@]1(F)CCc2nc3c(F)cc(C(=O)N[C@H](CCN4CCCCC4CCN(C)C)c4ccc(-c5ccnnc5)nc4)cc3cc2C1 (mixture of isomers) [Example 43, rac-(7S)-4,7-difluoro-7-isopropyl-N-[rac-(1R)-3-[2-[2-(dimethylamino)ethyl]piperidin-1-ium-1-yl]-1-(6-pyridazin-4-yl-3-pyridyl)propyl]-6,8-dihydro-5H-acridine-2-carboxamide;2,2,2-trifluoroacetate] | 6.67 |
| CC(C)[C@]1(F)CCc2nc3c(F)cc(C(=O)N[C@H](CCN4CCC(O)CC4)c4cnc(NS(=O)(=O)N(C)C)c(F)c4)cc3cc2C1 [Example 27, (S)-N-((R)-1-(6-((N,N-dimethylsulfamoyl)amino)-5-fluoropyridin-3-yl)-3-(4-hydroxypiperidin-1-yl)propyl)-4,7-difluoro-7-isopropyl-5,6,7,8-tetrahydroacridine-2-carboxamide] | 5.61 |
| CC(C)[C@]1(F)CCc2nc3c(F)cc(C(=O)N[C@H](CCN4[C@H](C)CCC[C@@H]4C)c4ccc(-c5ccnnc5)nc4)cc3cc2C1 (racemic) [Example 61, rac-(7S)-4,7-difluoro-7-isopropyl-N-[rac-(1R)-1-(6-pyridazin-4-yl-3-pyridyl)-3-[rac-(2R,6S)-2,6-dimethyl-1-piperidyllpropyl]-6,8-dihydro-5H-acridine-2-carboxamide] | 6.99 |
